From article PMC10862539, “Chelation of Mitochondrial Iron as an Antiparasitic Strategy” (ACS Infectious Diseases, 2024)
Like-named read-outs stand apart in the source and are kept apart here.

Experiments:
iron-containing fumarase = experiment: Fumarase activity in cytosolic and mitochondrial fractions of treated T. brucei 427; type: cell-based, Trypanosoma brucei; conditions: 0.12 μM compound, 24 h; for reduction of cytosolic fumarase activity: cytosolic fraction; for reduction of mitochondrial fumarase activity: mitochondrial fraction
Protocol: (§1) T. brucei 427 bloodstream forms were preincubated for 24 h in appropriate conditions (0.12 μM mitoDFO, 0.12 μM DFO, and no addition) and harvested, and cytosolic and mitochondrial fractions were separated by digitonin fractionation as described previously.[46] Briefly, cells were spun down (1200 g, 15 min, 4 °C) and resuspended in SHE buffer (250 mM sucrose, 25 mM HEPES, 1 mM EDTA, pH 7.4), and protein concentration was measured using a BCA kit (Sigma-Aldrich). Subsequently, cells were transferred into HBSS (Sigma-Aldrich) and digitonin (Calbiochem) was added in the protein/digitonin ratio of 1/0.15 for 4 min and spun (21 000 g, 2 min, 4 °C). The supernatant was collected and placed on ice as a cytosolic fraction. The remaining pellet was lysed using 0.1% Triton X-100 in HBSS for 5 min, resuspended, washed in HBSS twice, and used as a mitochondrial fraction. The activities of cytosolic pyruvate kinase and mitochondrial threonine dehydrogenase were assessed in all conditions using the spectrophotometric assay at […], as described in ref ([46]), and served both as markers of successful fraction preparation and to assess the effect of the studied compounds. Briefly, pyruvate kinase was measured in TEA buffer (0.1 M triethanolamine, 5 mM MgSO4, 50 mM KCl, pH 7.6) with added 2.8 mM phosphoenolpyruvate, 2 mM ADP, 0.3 mM NADH, and lactate dehydrogenase. Threonine dehydrogenase was measured in 0.2 M Tris–HCl buffer, pH 8.6, 0.25 KCl with 120 mM threonine, and 2.5 mM NAD^+. Fumarase was measured at […] in 2 mM Tris–HCl buffer, pH 7.5, with 20 mM malate.

[1] = system: intracellular Leishmania mexicana amastigotes; experiment: Intracellular L. mexicana infection assay, GFP amastigotes in macrophages; type: cell-based; conditions: for EC50: Leishmania mexicana, Macrophage, read-out: EC50 infection assay Leishmania mexicana
Protocol: Approximately 10 000 murine macrophages per well were seeded on 96 well plate, and a suspension of 60 000 L. mexicana GFP-expressing promastigotes was added to each well and left to infect the mammal cells for 72 h in a cultivation medium under the conditions described in Table S2. 2-fold dilution series starting with 100 μM of either mitoDFO, DFO, or Amphotericin B in a regular growth medium were added, and cultures were incubated for further 72 h in the same conditions. Macrophage cells were washed and resuspended in growth medium and detached by pipetting, and their concentration in each well was measured on a Guava EasyCyte 8HT flow cytometer (Luminex). The GFP signal of internalized L. mexicana amastigotes in each macrophage was detected using a 488 nm excitation laser and a 525/30 nm detector. Median fluorescence graphs were plotted, and EC50 values for both macrophages and intracellular L. mexicana were calculated using Prism 8.0 (GraphPad Software).

B. divergens = experiment: Drug sensitivity assay, B. divergens in bovine erythrocytes (flow cytometry); type: cell-based, Babesia divergens; conditions: for EC50: Babesia divergens, Erythrocyte, 48 h; for selectivity (for −Fe): EC50 human fibroblasts / EC50 B. divergens
Protocol: (§2) All organisms were cultivated according to the conditions summarized in Table S2, which also includes strain specifications. Dose–response curves were obtained by their cultivation on 96 well plates in a 2-fold series dilution of the appropriate drug, in a total volume of 200 μL (with the exception of P. falciparum, where the total volume was 100 μL). Iron supplementation was achieved by mixing the compound with Fe-NTA in an equimolar ratio prior to setting up the experiment. Results were plotted and processed using Prism 8.0 (GraphPad Software). A two-tailed unpaired t-test was performed to assess the significance of the difference between mitoDFO with and without added iron. Selectivity was calculated as the ratio of the average EC50 value for human fibroblasts to the average EC50 value for the appropriate pathogen. All data were obtained from a minimum of three independent biological replicates.

Human fibroblast BJ1 = experiment: Drug sensitivity assay, human fibroblast BJ1 (CellTiter-Glo); type: cell-based; conditions: for EC50: 48 h
Protocol: as §2

[2] = system: cytosolic pyruvate kinase; experiment: Pyruvate kinase activity in cytosolic fraction of treated T. brucei 427; type: cell-based, Trypanosoma brucei; conditions: 0.12 μM compound, 24 h
Protocol: as §1, with “The supernatant was collected and placed on ice as a cytosolic fraction. The remaining pellet was lysed using 0.1% Triton X-100 in HBSS for 5 min, resuspended, washed in HBSS twice, and used as a mitochondrial fraction.” left out

L. major (promastigote) = experiment: Drug sensitivity assay, L. major promastigote (flow cytometry); type: cell-based; conditions: for EC50: Leishmania major, 120 h
Protocol: as §2

T. gambiense (BSF) = experiment: Drug sensitivity assay, T. gambiense bloodstream form (resazurine); type: cell-based, Trypanosoma gambiense; conditions: for selectivity (for −Fe): EC50 human fibroblasts / EC50 T. gambiense (BSF); for EC50: Trypanosoma brucei, 72 h
Protocol: as §2

T. brucei STIB (BSF) = experiment: Drug sensitivity assay, T. brucei STIB bloodstream form (resazurine); type: cell-based, Trypanosoma brucei; conditions: for selectivity (for −Fe): EC50 human fibroblasts / EC50 T. brucei STIB (BSF); for EC50: Trypanosoma brucei, 72 h
Protocol: as §2

P. falciparum = experiment: Drug sensitivity assay, P. falciparum (SYBR green I); type: cell-based, Plasmodium falciparum; conditions: for selectivity (for −Fe): EC50 human fibroblasts / EC50 P. falciparum; for EC50: Plasmodium falciparum
Protocol: as §2

[3] = system: mitochondrial threonine dehydrogenase; experiment: Threonine dehydrogenase activity in mitochondrial fraction of treated T. brucei 427; type: cell-based, Trypanosoma brucei; conditions: 0.12 μM compound, 24 h
Protocol: as §1, with “The supernatant was collected and placed on ice as a cytosolic fraction. The remaining pellet was lysed using 0.1% Triton X-100 in HBSS for 5 min, resuspended, washed in HBSS twice, and used as a mitochondrial fraction.” left out

L. mexicana (amastigote) = experiment: Drug sensitivity assay, axenic L. mexicana amastigote (flow cytometry); type: cell-based, Leishmania mexicana; conditions: for EC50: Leishmania mexicana
Protocol: as §2

A. castellanii = experiment: Drug sensitivity assay, A. castellanii (flow cytometry); type: cell-based, Acanthamoeba castellanii; conditions: for selectivity (for −Fe): EC50 human fibroblasts / EC50 A. castellanii; for EC50: Acanthamoeba castellanii, 96 h
Protocol: as §2

G. intestinalis = experiment: Drug sensitivity assay, G. intestinalis (flow cytometry); type: cell-based; conditions: for EC50: Giardia duodenalis, 24 h
Protocol: as §2

C. neoformans = experiment: Drug sensitivity assay, C. neoformans (OD600); type: cell-based, Cryptococcus neoformans; conditions: for EC50: Cryptococcus neoformans, 72 h
Protocol: as §2

N. fowleri = experiment: Drug sensitivity assay, N. fowleri (flow cytometry); type: cell-based; conditions: for selectivity (for −Fe): EC50 human fibroblasts / EC50 N. fowleri; for EC50: Naegleria fowleri, 72 h
Protocol: as §2

[4] = axenic monoculture, read-out: EC50 axenic Leishmania mexicana
[5] = iron-free compound, L. mexicana (amastigote), 120 h, read-out: EC50 –Fe
[6] = pre-treated with equimolar iron, L. mexicana (amastigote), 120 h, read-out: EC50 +Fe

## CC(=O)N(O)CCCCCNC(=O)CCC(=O)N(O)CCCCCNC(=O)CCC(=O)N(O)CCCCCN(CCCCCCCCCC[P+](c1ccccc1)(c1ccccc1)c1ccccc1)CCCCCCCCCC[P+](c1ccccc1)(c1ccccc1)c1ccccc1 [mitoDFO]
iron-containing fumarase
  reduction of cytosolic fumarase activity: approximately 3 fold
  reduction of mitochondrial fumarase activity: approximately 3 fold
[1]
  decrease in EC50 concentration, intracellular amastigotes versus axenic parasites: 2 fold
[1]; 72 h
  EC50: 0.67 ± 0.24 µM
B. divergens; B. divergens
  DFO/mitoDFO ratio (−Fe): 4.7
  mitoDFO EC50 ratio + Fe/–Fe: 2.5
B. divergens; read-out: EC50 –Fe
  EC50: 2.3 ± 0.8 µM
B. divergens
  selectivity (for −Fe): 4
Human fibroblast BJ1; Homo sapiens, Fibroblast, read-out: EC50 –Fe
  EC50: 8.9 ± 3.2 µM
Human fibroblast BJ1; Human fibroblast BJ1
  DFO/mitoDFO ratio (−Fe): >11.2
  mitoDFO EC50 ratio + Fe/–Fe: 2.5
[2]
  pyruvate kinase activity: no difference in activity
L. major (promastigote); EC50 human fibroblasts / EC50 L. major (promastigote)
  selectivity (for −Fe): 5
L. major (promastigote); L. major (promastigote)
  DFO/mitoDFO ratio (−Fe): >13.2
  mitoDFO EC50 ratio + Fe/–Fe: 4.8
L. major (promastigote); read-out: EC50 –Fe
  EC50: 1.9 ± 0.6 µM
T. gambiense (BSF)
  selectivity (for −Fe): 49
T. gambiense (BSF); T. gambiense (BSF)
  DFO/mitoDFO ratio (−Fe): 13.7
  mitoDFO EC50 ratio + Fe/–Fe: 1.2
T. gambiense (BSF); GAMBIENSE, read-out: EC50 –Fe
  EC50: 0.181 ± 0.043 µM
T. brucei STIB (BSF)
  selectivity (for −Fe): 28
T. brucei STIB (BSF); T. brucei STIB (BSF)
  DFO/mitoDFO ratio (−Fe): 8.1
T. brucei STIB (BSF); read-out: EC50 –Fe
  EC50: 0.32 ± 0.067 µM
P. falciparum
  selectivity (for −Fe): 27
  EC50: 0.334 ± 0.01 µM
P. falciparum; P. falciparum
  DFO/mitoDFO ratio (−Fe): 38.0
  mitoDFO EC50 ratio + Fe/–Fe: 1.4
P. falciparum; 48 h, read-out: EC50 –Fe
  EC50: 0.33 ± 0.01 µM
[3]
  threonine dehydrogenase activity: significantly reduced
L. mexicana (amastigote); EC50 human fibroblasts / EC50 L. mexicana (amastigote)
  selectivity (for −Fe): 6
L. mexicana (amastigote); L. mexicana (amastigote)
  DFO/mitoDFO ratio (−Fe): >15.6
  mitoDFO EC50 ratio + Fe/–Fe: 1.5
L. mexicana (amastigote); [4]
  EC50: 1.56 ± 0.5 µM
L. mexicana (amastigote); [5]
  EC50: 1.6 ± 0.5 µM
L. mexicana (amastigote); [6]
  EC50: 2.4 ± 0.5 µM
A. castellanii; A. castellanii
  DFO/mitoDFO ratio (−Fe): 11.1
  mitoDFO EC50 ratio + Fe/–Fe: 1.3
A. castellanii
  selectivity (for −Fe): 11
G. intestinalis; read-out: EC50 –Fe
  EC50: > 50 µM
G. intestinalis; in words
  effect on G. intestinalis: not affected
C. neoformans; C. neoformans
  DFO/mitoDFO ratio (−Fe): >50
  mitoDFO EC50 ratio + Fe/–Fe: 2.1
C. neoformans; read-out: EC50 –Fe
  EC50: 2 ± 0.5 µM
C. neoformans; EC50 human fibroblasts / EC50 C. neoformans
  selectivity (for −Fe): 4
N. fowleri
  selectivity (for −Fe): 1
N. fowleri; N. fowleri
  DFO/mitoDFO ratio (−Fe): 2.9
  mitoDFO EC50 ratio + Fe/–Fe: 3.0
N. fowleri; read-out: EC50 –Fe
  EC50: 6.7 ± 0.7 µM

## CC(=O)N(O)CCCCCNC(=O)CCC(=O)N(O)CCCCCNC(=O)CCC(=O)N(O)CCCCCN [DFO, Deferoxamine, reference compound]
iron-containing fumarase
  reduction of cytosolic fumarase activity: no significant effect
  reduction of mitochondrial fumarase activity: no significant effect
[1]; intracellular amastigotes, 72 h treatment
  EC50: 47.1 ± 2.91 µM
B. divergens; iron-free compound, B. divergens, read-out: EC50 –Fe
  EC50: 10.8 ± 1.3 µM
B. divergens; pre-treated with equimolar iron, B. divergens, read-out: EC50 +Fe
  EC50: > 50 µM
B. divergens
  selectivity (for −Fe): >9
Human fibroblast BJ1; iron-free compound, Human fibroblast BJ1, read-out: EC50 –Fe
  EC50: > 100 µM
Human fibroblast BJ1; pre-treated with equimolar iron, Human fibroblast BJ1, read-out: EC50 +Fe
  EC50: > 100 µM
[2]
  pyruvate kinase activity: no difference in activity
L. major (promastigote); iron-free compound, L. major (promastigote), read-out: EC50 –Fe
  EC50: > 25 µM
L. major (promastigote); pre-treated with equimolar iron, L. major (promastigote), read-out: EC50 +Fe
  EC50: > 25 µM
T. gambiense (BSF)
  selectivity (for −Fe): >40
T. gambiense (BSF); iron-free compound, T. gambiense (BSF), read-out: EC50 –Fe
  EC50: 2.47 ± 1.16 µM
T. gambiense (BSF); pre-treated with equimolar iron, T. gambiense (BSF), read-out: EC50 +Fe
  EC50: > 25 µM
T. brucei STIB (BSF)
  selectivity (for −Fe): >38
T. brucei STIB (BSF); iron-free compound, T. brucei STIB (BSF), read-out: EC50 –Fe
  EC50: 2.61 ± 0.753 µM
T. brucei STIB (BSF); pre-treated with equimolar iron, T. brucei STIB (BSF), read-out: EC50 +Fe
  EC50: 14.5 ± 1.18 µM
P. falciparum
  selectivity (for −Fe): >8
P. falciparum; iron-free compound, P. falciparum, 48 h, read-out: EC50 –Fe
  EC50: 12.7 ± 0.6 µM
P. falciparum; pre-treated with equimolar iron, P. falciparum, 48 h, read-out: EC50 +Fe
  EC50: > 50 µM
[3]
  threonine dehydrogenase activity: not
L. mexicana (amastigote); [4]
  EC50: > 25 µM
L. mexicana (amastigote); [5]
  EC50: > 25 µM
L. mexicana (amastigote); [6]
  EC50: > 25 µM
A. castellanii; iron-free compound, A. castellanii, read-out: EC50 –Fe
  EC50: 8.9 ± 0.6 µM
A. castellanii; pre-treated with equimolar iron, A. castellanii, read-out: EC50 +Fe
  EC50: > 50 µM
A. castellanii
  selectivity (for −Fe): >11
G. intestinalis; iron-free compound, G. intestinalis, read-out: EC50 –Fe
  EC50: > 100 µM
G. intestinalis; pre-treated with equimolar iron, G. intestinalis, read-out: EC50 +Fe
  EC50: > 100 µM
C. neoformans; iron-free compound, C. neoformans, read-out: EC50 –Fe
  EC50: > 100 µM
C. neoformans; pre-treated with equimolar iron, C. neoformans, read-out: EC50 +Fe
  EC50: > 100 µM
N. fowleri
  selectivity (for −Fe): >5
N. fowleri; iron-free compound, N. fowleri, read-out: EC50 –Fe
  EC50: 19.5 ± 5.9 µM
N. fowleri; pre-treated with equimolar iron, N. fowleri, read-out: EC50 +Fe
  EC50: > 100 µM
